Measured values: patent US10307407B2, “9H-pyrimido [4,5-B] indoles as BET bromodomain inhibitors” (THE REGENTS OF THE UNIVERSITY OF MICHIGAN, priority 2015, dated 2019)

Experiments:
[1] = target: T1, recombinant BRD4 BD1 (Homo sapiens, UniProt O60885); experiment: Competitive fluorescence-polarization (FP) binding assay, BRD4 BD1; details: FAM labeled probe 1.5 nM, protein 10 nM, pH 6.5
T1 construct: recombinant BRD4 BD1 and BRD4 BD2 proteins
Protocol: (§1) Fluorescence Polarization (FP) competitive binding studies were carried out using a FAM labeled fluorescent probe (ZBA248 or BRD-1F) to determine binding affinities of representative Compounds of the Disclosure for recombinant BRD4 BD1 and BRD4 BD2 proteins. For example, equilibrium dissociation constants (Kd) values of ZBA248 to these six proteins were determined from protein saturation experiments by monitoring the total fluorescence polarization of mixtures composed with the fluorescent probe at a fixed concentration and proteins with increasing concentrations up to full saturation. Serial dilutions of testing protein were mixed with ZBA248 to a final volume of 200 μl in the assay buffer. In order to achieve large dynamic rages, particularly for BD1 bromodomains, 100 mM phosphate buffer (pH=6.5, 0.01% Triton X-100 (Sigma, 282103) being added right before assays) was used as the assay buffer. Final ZBA248 concentration was 1.5 nM for all proteins. Plates were incubated at room temperature for 30 minutes with gentle shaking to assure equilibrium. FP values in millipolarization units (mP) were measured using the Infinite M-1000 plate reader (Tecan U.S., Research Triangle Park, N.C.) in Microfluor 1 96-well, black, round-bottom plates (Thermo Scientific, Waltham, Mass.) at an excitation wavelength of 485 nm and an emission wavelength of 530 nm. Kd values of ZBA248 were calculated by fitting the sigmoidal dose-dependent FP increases as a function of protein concentrations using Graphpad Prism 6.0 software (Graphpad Software, San Diego, Calif.).
(§2) The IC50 and Ki values of representative Compounds of the Disclosure were determined in a competitive binding experiment as described above. Mixtures of 10 μl of the tested compounds in assay buffer with 40% Ethylene Glycol and 190 μl of preincubated protein/probe complex solution in the assay buffer (100 mM potassium phosphate, pH 6.5, 0.01% Triton X-100) were added into assay plates which were incubated at room temperature for 30 minutes with gentle shaking. Final concentrations of proteins were 10 and 6 nM in assays for BD1 and BD2 of BRD4, respectively. Final probe concentration is 1.5 nM in all assays. Negative controls containing protein/probe complex only (equivalent to 0% inhibition), and positive controls containing only free probes (equivalent to 100% inhibition), were included in each assay plate. FP values were measured as described above. IC50 values were determined by nonlinear regression fitting of the competition curves. Instead of being calculated from IC50 values as described before, Ki values of competitive inhibitors were obtained directly by nonlinear regression fitting as well, based upon the Kd values of the probe to different proteins, and concentrations of the proteins and probes in the competitive assays (Wang, FEBS Lett. 360; 111 (1995); Zhang et al., Analytical Biochemistry, 331; 138 (2004)).
(§3) Binding affinities of representative Compounds of the Disclosure to BRD4 BD1 and BRD4 BD2 proteins in competitive, fluorescence-polarization assays are presented in Table 2.

[2] = tested on: LNCaP cells; experiment: Cell growth inhibition, 4-day proliferation assay, LNCaP; format: cell-based; details: Homo sapiens, 96 h, prostate cancer cell line, 4 days treatment
Protocol: (§4) The effect of representative Compounds of the Disclosure on cell viability was determined in a 4-day proliferation assay. Cells were maintained in the appropriate culture medium with 10% FBS at 37° C. and an atmosphere of 5% CO2. All the cell lines were used within three months of thawing fresh vials.
(§5) Cells were seeded in 96-well flat bottom (Corning COSTAR, Corning, NY, cat#3595) or white opaque cell culture plates (BD Falcon, cat#353296) at a density of 3,000-10,000 cells/well in 75 μl of culture medium. Compounds were serially diluted in the appropriate medium, and 75 μl of the diluted compounds were added to the appropriate wells of the cell plate. After the addition of compounds, the cells were incubated at 37° C. in an atmosphere of 5% CO2 for 4 days. Cell viability was determined using the CellTiter-Glo® Luminescent Cell Viability Assay Kit (Promega, Madison, Wis.) for RS4-11 and MV4-11 cells and WST (2-(2-methoxy-4-nitrophenyl)-3-(4-nitrophenyl)-5-(2,4-disulfophenyl)-2H-tetrazolium, monosodium salt) Cell Counting-8 Kit (Dojindo Molecular Technologies, Inc., Rockville, Md.) for MDA-MB-231 cells according to the manufacturers' instructions.
(§6) Cell growth inhibition of representative Compounds of the Disclosure in representative breast cancer (MDA-MB-231), acute leukemia (MV4-11), and prostate cancer cell lines (LNCaP), as determined by a WST assay, are presented in Table 3. Cells were treated with each inhibitor for 4 days.

[3] = target: T2, recombinant BRD4 BD2 (Homo sapiens, UniProt O60885); experiment: Competitive fluorescence-polarization (FP) binding assay, BRD4 BD2; details: FAM labeled probe 1.5 nM, protein 6 nM, pH 6.5
T2 construct: recombinant BRD4 BD1 and BRD4 BD2 proteins
Protocol: as §1, §2, §3

[4] = tested on: MV4-11 cells; experiment: Cell growth inhibition, 4-day proliferation assay, MV4-11; format: cell-based; details: Homo sapiens, MV4-11, 96 h, acute leukemia cell line, 4 days treatment
Protocol: as §4, §5
For CellTiter-Glo assay (RS4-11 and MV4-11 cells), 100 μl of CellTiter-Glo® Reagent was added to each well, and then the plates were incubated at room temperature for 10-20 minutes. The luminescent signal was measured using a Tecan Infinite M1000 multimode microplate reader (Tecan, Morrisville, N.C.). The readings were normalized to the DMSO-treated cells and the IC50 was calculated by nonlinear regression (four parameters sigmoid fitted with variable slope, least squares fit, and no constraint) analysis using the GraphPad Prism 5 software.
as §6

[5] = tested on: MDA-MB-231 cells; experiment: Cell growth inhibition, 4-day proliferation assay (WST), MDA-MB-231; format: cell-based; details: Homo sapiens, MDA-MB-231, 96 h, breast cancer cell line, 4 days treatment
Protocol: as §4, §5
For WST assay (MDA-MB-231 cells), WST-8 reagent was added to each well at a final concentration of 10% (v/v), and then the plates were incubated at 37° C. for 1-2 hours for color development. The absorbance was measured at 450 nm using a SPECTRAmax PLUS plate reader (Molecular Devices, Sunnyvale, Calif.). The readings were normalized to the DMSO-treated cells and the half maximal inhibitory concentration (IC50) was calculated by nonlinear regression (four parameters sigmoid fitted with variable slope, least squares fit, and no constraint) analysis using the GraphPad Prism 5 software (GraphPad Software, La Jolla, Calif.).
as §6

- IC50 [1]: 5.5 nM
- IC50 [2]: 3 nM
- IC50 [3]: 2.4 nM
- IC50 [4]: 3 nM
- IC50 [5]: 13 nM
Compound: CCn1nc(C2CC2)cc1Nc1nc(COC)nc2[nH]c3cc(-c4c(C)noc4C)c(OC)cc3c12 [Cpd. No. 5, N-(3-cyclopropyl-1-ethyl-1H-pyrazol-5-yl)-7-(3,5-dimethylisoxazol-4-yl)-6-methoxy-2-(methoxymethyl)-9H-pyrimido[4,5-b]indol-4-amine]
